Reference: publication PMC9958325 (Nature Communications, 2023)
Values joined by “and” are separate entries in the source; they are usually repeats but may differ in a detail not shown here. Identical values can stand only once.

How the values were obtained:
[1] = Pharmacokinetic study in PXB-mice (human liver-chimeric)
HeLa-ACE2-TMPRSS2 cells = assay: Intracellular concentrations of compounds (LC/MS), HeLa-ACE2-TMPRSS2 cells; conditions: 6 h; for Intracellular amount, individual: listed as TKB-0245

SMILES: CC(C)(C)[C@H](NC(=O)C(F)(F)F)C(=O)N1C[C@H]2[C@@H]([C@H]1C(=O)N[C@@H](C[C@@H]1CCNC1=O)C(=O)c1nc3c(F)cccc3s1)C2(C)C [TKB245]
- Vdss ([1]; PXB-mice, 10 mg/kg p.o., mean ± S.E.): 0.1941 ± 0.03543 L/kg
- AUC ([1]; PXB-mice, 10 mg/kg p.o., mean ± S.E., n=3): 5120 ± 430 ng·h/mL
- Plasma concentration ([1]; PXB-mice, i.v. 10 mg/kg, 10 min, individual mice): 8436.5 ng/mL
- Plasma concentration ([1]; PXB-mice, i.v. 10 mg/kg, 10 min, individual mice, listed as TKB0245, 10 mg/kg): 8433.5 ng/mL and 10627.1 ng/mL
- Plasma concentration ([1]; PXB-mice, i.v. 10 mg/kg, 0.17 hr, individual mice, listed as TKB0245, 10 mg/kg): 8440 ng/mL and 8430 ng/mL and 10630 ng/mL
- Plasma concentration ([1]; PXB-mice, i.v. 10 mg/kg, 60 min, individual mice, listed as TKB0245, 10 mg/kg): 2816 ng/mL and 2507.3 ng/mL and 3230 ng/mL
- Plasma concentration ([1]; PXB-mice, i.v. 10 mg/kg, 1 hr, individual mice, listed as TKB0245, 10 mg/kg): 2820 ng/mL and 2510 ng/mL and 3230 ng/mL
- Plasma concentration ([1]; PXB-mice, i.v. 10 mg/kg, 240 min, individual mice, listed as TKB0245, 10 mg/kg): 47 ng/mL and 52.3 ng/mL and 95 ng/mL
- Plasma concentration ([1]; PXB-mice, i.v. 10 mg/kg, 4 hr, individual mice, listed as TKB0245, 10 mg/kg): 0.05 µg/ml (2×) and 0.09 µg/ml
- Plasma concentration ([1]; PXB-mice, i.v. 10 mg/kg, 480 min, individual mice, listed as TKB0245, 10 mg/kg): 10.4 ng/mL and 14.8 ng/mL and 20 ng/mL
- Plasma concentration ([1]; PXB-mice, i.v. 10 mg/kg, 8 hr, individual mice, listed as TKB0245, 10 mg/kg): 0.01 µg/ml (2×) and 0.02 µg/ml
- Plasma concentration ([1]; PXB-mice, i.v. 10 mg/kg, 1440 min, individual mice, listed as TKB0245, 10 mg/kg): 13.6 ng/mL and 11.6 ng/mL and 12.4 ng/mL
- Plasma concentration ([1]; PXB-mice, i.v. 10 mg/kg, 24 hr, individual mice): 10 ng/mL
- Plasma concentration ([1]; PXB-mice, p.o. 10 mg/kg, 10 min, individual mice, listed as TKB0245, 10 mg/kg): 914.5 ng/mL and 1553.1 ng/mL and 2872.3 ng/mL
- Plasma concentration ([1]; PXB-mice, p.o. 10 mg/kg, 0.17 hr, individual mice, listed as TKB0245, 10 mg/kg): 910 ng/mL and 1550 ng/mL and 2870 ng/mL
- Plasma concentration ([1]; PXB-mice, p.o. 10 mg/kg, 60 min, individual mice, listed as TKB0245, 10 mg/kg): 1278.1 ng/mL and 1343.7 ng/mL and 1794.3 ng/mL
- Plasma concentration ([1]; PXB-mice, p.o. 10 mg/kg, 1 hr, individual mice, listed as TKB0245, 10 mg/kg): 1280 ng/mL and 1340 ng/mL and 1790 ng/mL
- Plasma concentration ([1]; PXB-mice, p.o. 10 mg/kg, 240 min, individual mice, listed as TKB0245, 10 mg/kg): 152.9 ng/mL and 98.8 ng/mL and 128.8 ng/mL
- Plasma concentration ([1]; PXB-mice, p.o. 10 mg/kg, 4 hr, individual mice, listed as TKB0245, 10 mg/kg): 150 ng/mL and 100 ng/mL and 130 ng/mL
- Plasma concentration ([1]; PXB-mice, p.o. 10 mg/kg, 480 min, individual mice, listed as TKB0245, 10 mg/kg): 41.6 ng/mL and 34.4 ng/mL and 32.8 ng/mL
- Plasma concentration ([1]; PXB-mice, p.o. 10 mg/kg, 8 hr, individual mice, listed as TKB0245, 10 mg/kg): 0.04 µg/ml and 0.03 µg/ml (2×)
- Plasma concentration ([1]; PXB-mice, p.o. 10 mg/kg, 1440 min, individual mice, listed as TKB0245, 10 mg/kg): 26 ng/mL and 21.9 ng/mL and 27.9 ng/mL
- Plasma concentration ([1]; PXB-mice, p.o. 10 mg/kg, 24 hr, individual mice, listed as TKB0245, 10 mg/kg): 0.03 µg/ml (2×) and 0.02 µg/ml
- Plasma concentration ([1]; i.v., 10 min, individual animals (3 per time point), LC/MS/MS, listed as TKB0245): 8436.54 ng/mL and 8433.45 ng/mL and 10625.21 ng/mL
- Plasma concentration ([1]; i.v., 60 min, individual animals (3 per time point), LC/MS/MS, listed as TKB0245): 2816.02 ng/mL and 2507.33 ng/mL and 3228.12 ng/mL
- Plasma concentration ([1]; i.v., 240 min, individual animals (3 per time point), LC/MS/MS, listed as TKB0245): 47.02 ng/mL and 52.34 ng/mL and 93.04 ng/mL
- Plasma concentration ([1]; i.v., 480 min, individual animals (3 per time point), LC/MS/MS, listed as TKB0245): 10.40 ng/mL and 14.76 ng/mL and 18.04 ng/mL
- Plasma concentration ([1]; i.v., 1440 min, individual animals (3 per time point), LC/MS/MS, listed as TKB0245): 13.63 ng/mL and 11.63 ng/mL and 10.43 ng/mL
- Oral F ([1]; male PXB-mouse 10 mg/kg i.v. and p.o., dose-normalized AUC ratio, 10 mg/kg): 47.7% and 48% and 48¶ %
- Plasma concentration ([1]; p.o., 10 min, individual animals (3 per time point), LC/MS/MS, listed as TKB0245): 914.50 ng/mL and 1553.11 ng/mL and 2872.30 ng/mL
- Plasma concentration ([1]; p.o., 60 min, individual animals (3 per time point), LC/MS/MS, listed as TKB0245): 1278.12 ng/mL and 1343.67 ng/mL and 1794.27 ng/mL
- Plasma concentration ([1]; p.o., 240 min, individual animals (3 per time point), LC/MS/MS, listed as TKB0245): 152.94 ng/mL and 98.79 ng/mL and 128.84 ng/mL
- Plasma concentration ([1]; p.o., 480 min, individual animals (3 per time point), LC/MS/MS, listed as TKB0245): 41.61 ng/mL and 34.39 ng/mL and 32.81 ng/mL
- Plasma concentration ([1]; p.o., 1440 min, individual animals (3 per time point), LC/MS/MS, listed as TKB0245): 25.98 ng/mL and 21.91 ng/mL and 27.88 ng/mL
- Intracellular amount, avg (HeLa-ACE2-TMPRSS2 cells; Hela ACE2 TMPRSS2, 10uM): 0.603 pmol(total)
- Intracellular amount, individual (HeLa-ACE2-TMPRSS2 cells; Hela ACE2 TMPRSS2, 10uM): 0.6360 pmol(total) and 0.5701 pmol(total)
- Intracellular amount, avg (HeLa-ACE2-TMPRSS2 cells; Hela ACE2 TMPRSS2, 50uM): 4.167 pmol(total)
- Intracellular amount, individual (HeLa-ACE2-TMPRSS2 cells; Hela ACE2 TMPRSS2, 50uM): 4.585 pmol(total) and 3.749 pmol(total)
- Intracellular amount, avg (HeLa-ACE2-TMPRSS2 cells; Hela ACE2 TMPRSS2, 100uM): 8.85 pmol(total)
- Intracellular amount, individual (HeLa-ACE2-TMPRSS2 cells; Hela ACE2 TMPRSS2, 100uM): 8.312 pmol(total) and 9.388 pmol(total)
